The subject of experiment [1] is LNCaP cells. Description: MTT assay / cell counting, LNCaP cell growth. Format: cell-based, human. How it is done: Cells were harvested at the time indicated. […] Cells were harvested at the time indicated. […] Cell growth was determined by the MTT assay. The control group was cultured in 0.1% (vol/vol) ethanol and was set at 100%.
All the cell growth was determined by cell counting and MTT assay. Control group contained 0.1% (v/v) ethanol and was set at 100%.
LNCaP cells were cultured in RPMI medium with 8% FBS, and treated with 10^−5M of the indicated reagent Cells were harvested at the time indicated in the figure. All the cell growth was determined by cell counting and MTT assay. Control group contained 0.1% (v/v) ethanol and was set at 100%.
The human prostate cancer cell line LNCaP was obtained from the American Type Culture collection (Rockville, Md.). Fibroblast cell was primarily cultured from normal prostate tissue. LNCaP cells were propagated in 12-well, 60 mm or 100 mm culture dishes at the desired density in RPMI 1640 medium (Gibco, Rockville, Md.) supplemented with 8% fetal bovine serum (FBS) (Gibco, Rockville, Md.) at 37° C. and 5% CO2 until reaching 60%-80% confluence or were grown in phenol red-free RPMI medium 1640 with 8% fetal bovine serum (FBS). The fibroblast cells were maintained in DMEM (Gibco, Rockville, Md.) with 10% FBS. […] During the treatment, the medium was changed every 4 days and fresh compounds were added every 2 days.
The MTT assay is a quantitative colorimetric assay for mammalian cell survival and proliferation (13, 16). The 5×10^4 LNCaP cells were seeded in 12-well plates. After 36-48 h, the medium was changed to phenol red free RPMI1640 with 8 % FBS or CS-FBS for another 2, 4, and 6 days, with different compound treatment with or without ligand. At the end of each time period treatment, 200 μl of MTT (5 mg/ml; Sigma) was added into the each well with 1 ml of medium for 3 h at 37° C. After incubation, 2 ml of 0.04 M HCl in isopropyl alcohol was added into each well. After 30-min shaking at room temperature and several pippettings, the absorbency was read at a test wavelength of 595 nm. The 2×10^5 fibroblast cells were seeded in each well of 6-well dishes. […] For cell counting, cells were trypsinized, neutralized by medium, and counted on hemocytometers. Fibroblast cells were seeded at 2×10^5 per well in 6-well plates, and cell growth assays were conducted by using the same MTT assay used for LNCaP cells.
For orientation: Tetrazolium dyes change colour on reduction, which living cells bring about.

The subject of experiment [2] is PSA. Description: PSA expression in LNCaP cells (Western and Northern blotting). It is filed as cell-based, human. To be noted: LNCaP; for PSA expression: Western blotting (FIG. 9). As to the method: (§1) Cells without treatment were harvested on day 2 and used as a control. Western blotting was used to detect the expression of PSA protein. Actin served as an internal control. […] Cells were harvested on days 1, 2, and 3 for Northern blotting analysis. β-Actin served as an internal control. […] The transfections were performed at least three times and presented as an average±SD. […] LNCaP cells without any treatment harvested on the first day (day 0) is used as a control. Western blotting was applied to detect the expression of PSA protein level. […] Cells were harvested on day 1, 2, and 3 for Northern blotting analyses. (G). […] The transfections were performed three times and presented as an average: bar-denotes standard deviation.
Protein harvested from cells without treatment on the first day (day 0) was used as a control. Fifty micrograms of whole-cell lysate was subjected to Western blotting assay.
LNCaP cells were cultured in RPMI medium with 8% FBS, and treated with […] of the indicated reagent. Proteins harvested from cells without treatment on day 2 were used as a control. 60 micrograms of whole cell lysate was subjected to Western blotting assay.
Total protein lysate from LNCaP cells was prepared as previously described (Yeh, PNAS). After separation of 50 μg protein by SDS-PAGE gel, proteins were transferred by electrophoresis to Immobilon-P membrane (Millipore Corp., Bedford, Mass.) and incubated in PBS with 0.1% Tween-20 and 10% FCS for 2 h. Primary antibodies specific for human AR, PSA, and β-actin were diluted in PBS with 0.1% Tween-20 (PBST) as described in manual and incubated at room temperature for 2 h. Membranes were washed in PBST (three times, 10 min each time) and incubated with AP-conjugated secondary antibody which was diluted as described in manual in PBST and incubated for 2 h in room temperature, washed in PBST (three times, 10 min each time). The proteins were detected by AP western blotting reagents.
Cells were harvest after 1, 2, and 3 days treatment. Total RNA was extracted using Trizol, according to manufacturer's directions (GIBCO). Total RNA (20 μg) was electrophoresed though formaldehyde-agarose gels and transferred to Hybond-N+ membrane (Amersham Pharmacia Biotech) according the company's protocol (17).
For Northern blots, the fragments of the human PSA, AR, and β-actin cDNA were labeled with [^32P]-dCTP using the random primed DNA labeling kit from Amersham Pharmacia Biotech. Membranes were prehybridized, hybridized, and washed using Rapid-hyb system from Amersham Pharmacia Biotech, according to the manufacturer's user manual. The mRNA was detected using phosphorimager screen system (Molecular Dynamics).
(In western blotting, separated proteins are transferred to a membrane and probed.)

Experiment [3] has as its system PSA6.0-Luc. Description: PSA promoter luciferase reporter (PSA6.0-Luc) in LNCaP cells. It is filed as cell-based, human. To be noted: 5 nM DHT, 10 μM VES or Suc. As to the method: as §1
Experiment [4] has as its system AR. Description: In vivo AR radioligand competition binding assay in LNCaP cells. To be noted: 2.5 nM [3H]R1881, 100-fold excess unlabeled R1881 (250 nM). More on the design: species or system human. How it is done:
[^3H]R1881-binding without competition was set at 100%. […] (B) AR N-C dimerization.
LNCaP cells were plated into 60-mm dishes and grown to 60% confluence. […] After 1-h incubation, cells were harvested by lysis buffer (PBS with 1% Triton X-100). Equal protein amounts of cell extract were subjected to binding assays, which were terminated by adding hydroxylapatite. Each sample was filtered by using a sampling manifold (Millipore) and unbound ligand was removed by washing. Filter papers that contained bound ligand were transferred to counting vials containing 5 ml of liquid scintillation fluid and counted with a multipurpose scintillation counter (Beckman).
A general note: Loss of bound radioactivity is the signal in a displacement assay; it reports binding, not function.

The subject of experiment [5] is AR. Description: AR expression in LNCaP cells (Western and Northern blotting). It is filed as cell-based, human. To be noted: for AR expression at the protein level: Western blotting, 10 μM VES, Suc or SM, 10 nM Vit D; for AR expression: 8% FBS, Western blotting (FIG. 9). As to the method: Cells were harvested at different time points. Twenty-five micrograms of RNA and 50 μg of protein collected from the same culture dish were applied for Northern blotting and Western blotting assays, respectively (45). The amount of actin is shown as a control. […] LNCaP cells without treatment were harvested on day 2 and used as a control. Whole-cell lysates were subjected to Western blotting assay using primary antibodies for AR, VDR, PPAR, or RXR. […] Protein harvested from cells without treatment on the first day (day 0) was used as a control. Fifty micrograms of whole-cell lysate was subjected to Western blotting assay. […] LNCaP cells were cultured in RPMI medium with 8% FBS, and treated with […] of the indicated reagent. Proteins harvested from cells without treatment on day 2 were used as a control. 60 micrograms of whole cell lysate was subjected to Western blotting assay. Total protein lysate from LNCaP cells was prepared as previously described (Yeh, PNAS). […] Membranes were washed in PBST (three times, 10 min each time) and incubated with AP-conjugated secondary antibody which was diluted as described in manual in PBST and incubated for 2 h in room temperature, washed in PBST (three times, 10 min each time). The proteins were detected by AP western blotting reagents. […] Cells were harvest after 1, 2, and 3 days treatment. Total RNA was extracted using Trizol, according to manufacturer's directions (GIBCO). Total RNA (20 μg) was electrophoresed though formaldehyde-agarose gels and transferred to Hybond-N+ membrane (Amersham Pharmacia Biotech) according the company's protocol (17). For Northern blots, the fragments of the human PSA, AR, and β-actin cDNA were labeled with [^32P]-dCTP using the random primed DNA labeling kit from Amersham Pharmacia Biotech. Membranes were prehybridized, hybridized, and washed using Rapid-hyb system from Amersham Pharmacia Biotech, according to the manufacturer's user manual. The mRNA was detected using phosphorimager screen system (Molecular Dynamics).

In experiment [6] the target is human TAP (hTAP) (Homo sapiens, UniProt O76054). To be noted: recombinant hTAP; read-out: Kd of binding to recombinant hTAP; cited from earlier work.
Sequence of human TAP (hTAP) (O76054 whole entry): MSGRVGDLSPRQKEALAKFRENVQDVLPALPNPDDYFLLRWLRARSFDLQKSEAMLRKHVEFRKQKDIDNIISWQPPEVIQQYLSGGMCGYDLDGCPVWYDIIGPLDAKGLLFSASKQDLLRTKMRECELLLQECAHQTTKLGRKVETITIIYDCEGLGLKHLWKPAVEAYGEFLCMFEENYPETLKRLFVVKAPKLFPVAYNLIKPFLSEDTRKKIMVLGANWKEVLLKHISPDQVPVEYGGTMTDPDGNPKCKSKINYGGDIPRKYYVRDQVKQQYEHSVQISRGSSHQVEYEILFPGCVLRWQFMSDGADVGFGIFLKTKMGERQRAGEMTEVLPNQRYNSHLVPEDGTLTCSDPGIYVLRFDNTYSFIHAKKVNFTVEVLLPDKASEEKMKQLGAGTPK
[7] abbreviates: RPMI 8% FBS, 10^−5M reagent, cell counting and MTT (FIGS. 8 and 10).

As usually defined, the Kd is the equilibrium constant for the complex coming apart.

Consider `C[C@]12CCC(=O)C[C@@H]1CC[C@@H]1[C@@H]2CC[C@]2(C)[C@@H](O)CC[C@@H]12` [DHT, 5-dihydrotestosterone], for which, in experiment [1] (8% CS-FBS, DHT 5 nM, MTT), the LNCaP cell growth result is “can stimulate”. Besides, the “PSA expression at mRNA and protein levels” value in experiment [2] (5 nM DHT, 10 μM VES, Western and Northern blotting) is reported as “induced”. Besides, the “DHT induced PSA6.0-Luc activity” value in experiment [3] is recorded as “induced”.

For the compound `CC(C)(O)C(=O)Nc1ccc([N+](=O)[O-])c(C(F)(F)F)c1` [HF, hydroxyflutamide], in experiment [1] (8% CS-FBS with 5 nM DHT, HF 5 μM, VES 10 μM, MTT), the “DHT-mediated LNCaP cell growth” value is given as “fails to repress”. Further, in experiment [1] (8% FBS without DHT, HF 5 μM, VES 10 μM, MTT), the LNCaP cell growth entry is recorded as “induces LNCaP cell growth at day 2, with the induction gradually diminishing after day 4”.

In the case of `C[C@]1(O)CC[C@H]2[C@@H]3CCC4=CC(=O)CCC4=C3C=C[C@@]21C` [R1881, reference compound], the “specific binding of [3H]R1881 competed” value in experiment [4] amounted to 95%.

Consider `C[Se]CC[C@H](N)C(=O)O` [SM, selenomethionine], for which the LNCaP cell growth entry in experiment [1] (10 μM SM, after 4 days treatment) is recorded as “growth inhibition”. The “PSA expression (protein)” value in experiment [2] (8% FBS, 10 μM SM, Western blot) is given as “no effect”. Besides, the “AR expression at the protein level” value in experiment [5] was “no effect”.

For the compound `O=C(O)CCC(=O)O` [Suc, succinic acid], the “AR expression at the protein level” value in experiment [5] is given as “not”. In experiment [3], the “DHT induced PSA6.0-Luc activity” value is listed as “not”.

`CC(=O)Oc1c(C)c(C)c2c(c1C)CCC(C)(CCC[C@H](C)CCC[C@H](C)CCCC(C)C)O2` (stereo partly drawn) [VEA, α-Vit E acetate]: the PSA expression entry in experiment [2] (8% FBS) was “do not efficiently inhibit”. The AR expression result in experiment [5] is “do not efficiently inhibit”.

Regarding `C=C1/C(=C\C=C2/CCC[C@]3(C)[C@@H]([C@H](C)CCCC(C)(C)O)CC[C@@H]23)C[C@@H](O)C[C@@H]1O` [Vit D, 1α, 25-dihydroxyvitamin D3], in experiment [1] (setting [7]), the LNCaP cell growth result is “can inhibit”. Also, in experiment [5], the “AR expression at the protein level” value was “not”.

For the compound `Cc1c(C)c2c(c(C)c1O)CCC(C)(CCCC(C)CCCC(C)CCCC(C)C)O2` (stereo not shown) [vitamin E], the Kd in experiment [6] was 460 nM.

Consider `Cc1c(C)c2c(c(C)c1O)CC[C@@](C)(CCC[C@H](C)CCC[C@H](C)CCCC(C)C)O2` [α-Vit E, alpha—tocopherol], for which the LNCaP cell growth result in experiment [1] (setting [7]) is “can inhibit”. Moreover, the PSA expression result in experiment [2] (8% FBS) was “can also inhibit”. Moreover, in experiment [5], the AR expression entry was “can also inhibit”.

As to `Cc1c(O)cc2c(c1C)O[C@](C)(CCC[C@H](C)CCC[C@H](C)CCCC(C)C)CC2` [γ-Vit E, (+)-γ-tocopherol], in experiment [1] (setting [7]), the LNCaP cell growth entry is given as “can inhibit”. Moreover, in experiment [2] (8% FBS), the PSA expression result is reported as “do not efficiently inhibit”. Besides, the AR expression entry in experiment [5] is “do not efficiently inhibit”.

Values taken from patent publication US20040248971A1, “Use of vitamin e succinate and antiandrogen combination” (priority 2001, published 2004).
